Source: patent US7037500B1, “Method for using phagocytic particles and ATP receptors to deliver antigens to MHC class I receptors to induce immunity against microbial pathogens or tumors or to suppress immunity” (The Trustees of Columbia University in the City of New York, priority 2000, dated 2006)

Tests used:
P2X7 receptors = target: T1, P2X7 receptors (Mus musculus, UniProt Q9Z1M0); conditions: cited from earlier work
T1 sequence (Q9Z1M0 1-595): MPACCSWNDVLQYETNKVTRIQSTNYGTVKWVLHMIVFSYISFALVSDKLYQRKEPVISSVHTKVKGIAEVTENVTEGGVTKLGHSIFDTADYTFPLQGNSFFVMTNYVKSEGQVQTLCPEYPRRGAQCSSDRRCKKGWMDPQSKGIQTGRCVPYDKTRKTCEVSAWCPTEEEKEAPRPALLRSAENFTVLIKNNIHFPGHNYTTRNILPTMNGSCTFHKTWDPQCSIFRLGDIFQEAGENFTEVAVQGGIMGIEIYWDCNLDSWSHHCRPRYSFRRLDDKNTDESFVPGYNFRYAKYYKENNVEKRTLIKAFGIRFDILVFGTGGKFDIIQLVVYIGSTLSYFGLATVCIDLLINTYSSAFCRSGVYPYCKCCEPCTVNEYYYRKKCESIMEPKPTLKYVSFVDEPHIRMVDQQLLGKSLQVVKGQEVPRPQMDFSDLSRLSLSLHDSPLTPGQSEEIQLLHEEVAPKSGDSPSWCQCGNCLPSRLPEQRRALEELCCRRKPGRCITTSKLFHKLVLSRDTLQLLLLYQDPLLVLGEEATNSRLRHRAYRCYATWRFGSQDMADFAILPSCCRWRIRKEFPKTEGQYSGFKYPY

[1] = target: T2, P2X7 receptors of J774 cells (Mus musculus, UniProt Q9Z1M0); conditions: previous study (8); cited from earlier work
T2 construct: P2X7 receptors of J774 cells; endogenous in cells; host or cells: J774 macrophage-like cells
T2 sequence (Q9Z1M0 1-595): T1 sequence (Q9Z1M0 1-595)

[2] = system: Mouse bone marrow derived dendritic cells / isogenic spleen derived CD8 lymphocytes; test: CTL assay, 3H-thymidine uptake of CD8 lymphocytes co-incubated with treated dendritic cells; assay type: cell-based
Protocol: It is shown herein that if a peptide such as ovalbumin is loaded into the IgG opsonized red blood cell resealed ghosts and then incubated with mouse bone derived dendritic cells—the dendritic cells will present class I MHC and induce cytotoxic CD8 lymphocytes as measured by the capacity of these lymphocytes to proliferate in response to co-incubation of the dendritic cells with CD8 lymphocytes. (Table 1)
Table 1: Mouse Bone marrow derived dendritic cells prepared as described in FIG. 3 were incubated with the appropriate isogenic spleen derived CD8 lymphocytes for several hours and then the CTL response was assayed by radiolabeled thymidine incorporation into the lymphocytes indicating a proliferative response mediated via class I MHC.

Nc1ncnc2c1ncn2[C@@H]1O[C@H](COP(=O)(O)OP(=O)(O)OP(=O)(O)O)[C@@H](O)[C@H]1O [ATP^4−]
[ATP4-] needed to induce pore formation by P2X7 receptors (P2X7 receptors): > 130 µM

Cc1ccc(N(CC(=O)O)CC(=O)O)c(OCCOc2cc3cc(-c4ncc(C(=O)O)o4)oc3cc2N(CC(=O)O)CC(=O)O)c1 [fura 2]
penetration of plasma membrane pores formed by ATP4-activated P2X7 receptors [1]: penetrate plasma membrane pores

Soluble Ova peptide: soluble ovalbumin peptide (amino acids 257–264) (ESIINFEK; UniProt P01012 257-264, looked up, fragment)
CTL Assay- 3H-thymidine uptake (proliferation assay-cpm) ([2]; dendritic cells treated with 100 ng/ml): 90,000 cpm

B1: Soluble Ova protein: soluble ovalbumin protein (protein, UniProt P01012 2-386, looked up)
Ovalbumin: GSIGAASMEFCFDVFKELKVHHANENIFYCPIAIMSALAMVYLGAKDSTRTQINKVVRFDKLPGFGDSIEAQCGTSVNVHSSLRDILNQITKPNDVYSFSLASRLYAEERYPILPEYLQCVKELYRGGLEPINFQTAADQARELINSWVESQTNGIIRNVLQPSSVDSQTAMVLVNAIVFKGLWEKAFKDEDTQAMPFRVTEQESKPVQMMYQIGLFRVASMASEKMKILELPFASGTMSMLVLLPDEVSGLEQLESIINFEKLTEWTSSNVMEERKIKVYLPRMKMEEKYNLTSVLMAMGITDVFSSSANLSGISSAESLKISQAVHAAHAEINEAGREVVGSAEAGVDAASVSEEFRADHPFLFCIKHIATNAVLFFGRCVSP
CTL Assay- 3H-thymidine uptake (proliferation assay-cpm) ([2]; dendritic cells treated with 10 mg/ml): 160,000 cpm
